In PubChem BioAssay (NCI):
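Interpolation was linear, between the two tested concentrations surrounding the appropriate level; five concentrations were tested over 48 hours in 96-well plates. At the GI50, growth is halved. TGI denotes the concentration required for complete inhibition of growth.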

Tests used:
Assay in all cases: DTP human tumour cell line panel, 48 h
K-562 leukemia = test system: K-562 leukemia
OVCAR-3 ovarian = test system: OVCAR-3 ovarian
SF-268 CNS = test system: SF-268 CNS
HCT-116 colon = test system: HCT-116 colon
PC-3 prostate = test system: PC-3 prostate
SK-OV-3 ovarian = test system: SK-OV-3 ovarian
SNB-19 CNS = test system: SNB-19 CNS
M14 melanoma = test system: M14 melanoma
MCF7 breast = test system: MCF7 breast
OVCAR-8 ovarian = test system: OVCAR-8 ovarian
SK-MEL-5 melanoma = test system: SK-MEL-5 melanoma
HOP-92 NSCLC = test system: HOP-92 NSCLC
SNB-75 CNS = test system: SNB-75 CNS
786-0 renal = test system: 786-0 renal
DU-145 prostate = test system: DU-145 prostate
LOX IMVI melanoma = test system: LOX IMVI melanoma
OVCAR-4 ovarian = test system: OVCAR-4 ovarian
TK-10 renal = test system: TK-10 renal
SN12C renal = test system: SN12C renal
IGROV1 ovarian = test system: IGROV1 ovarian
HL-60(TB) leukemia = test system: HL-60(TB) leukemia
SK-MEL-28 melanoma = test system: SK-MEL-28 melanoma
A498 renal = test system: A498 renal
NCI/ADR-RES ovarian = test system: NCI/ADR-RES ovarian
SF-539 CNS = test system: SF-539 CNS
HCC-2998 colon = test system: HCC-2998 colon
HCT-15 colon = test system: HCT-15 colon
RPMI-8226 leukemia = test system: RPMI-8226 leukemia
OVCAR-5 ovarian = test system: OVCAR-5 ovarian
KM12 colon = test system: KM12 colon
HOP-62 NSCLC = test system: HOP-62 NSCLC
CAKI-1 renal = test system: CAKI-1 renal
T-47D breast = test system: T-47D breast
COLO 205 colon = test system: COLO 205 colon
SK-MEL-2 melanoma = test system: SK-MEL-2 melanoma
HT29 colon = test system: HT29 colon
CCRF-CEM leukemia = test system: CCRF-CEM leukemia
MOLT-4 leukemia = test system: MOLT-4 leukemia
MDA-MB-231 breast = test system: MDA-MB-231 breast
NCI-H522 lung = test system: NCI-H522 lung
NCI-H23 lung = test system: NCI-H23 lung
MDA-MB-435 = test system: MDA-MB-435
SW-620 colon = test system: SW-620 colon
SR leukemia = test system: SR leukemia
U251 CNS = test system: U251 CNS
NCI-H226 lung = test system: NCI-H226 lung
UO-31 renal = test system: UO-31 renal
SF-295 CNS = test system: SF-295 CNS
EKVX NSCLC = test system: EKVX NSCLC
ACHN renal = test system: ACHN renal
UACC-257 melanoma = test system: UACC-257 melanoma
UACC-62 melanoma = test system: UACC-62 melanoma
RXF 393 renal = test system: RXF 393 renal
MALME-3M melanoma = test system: MALME-3M melanoma
BT-549 breast = test system: BT-549 breast

COc1ccc(/C=C/c2c(C(=O)/C=C/c3ccccc3)c(C)nc3ccccc23)cc1
GI50 (K-562 leukemia): 2330 nM | TGI (K-562 leukemia): 7190 nM | GI50 (OVCAR-3 ovarian): 1650 nM | TGI (OVCAR-3 ovarian): 3120 nM | GI50 (SF-268 CNS): 2180 nM | TGI (SF-268 CNS): 5650 nM | GI50 (HCT-116 colon): 1030 nM | TGI (HCT-116 colon): 2600 nM | GI50 (PC-3 prostate): 1660 nM | TGI (PC-3 prostate): 3810 nM | GI50 (SK-OV-3 ovarian): 3130 nM | TGI (SK-OV-3 ovarian): 9540 nM | GI50 (SNB-19 CNS): 1660 nM | TGI (SNB-19 CNS): 3070 nM | GI50 (M14 melanoma): 1840 nM | TGI (M14 melanoma): 4440 nM | GI50 (MCF7 breast): 1370 nM | TGI (MCF7 breast): 7740 nM | GI50 (OVCAR-8 ovarian): 1750 nM | TGI (OVCAR-8 ovarian): 4100 nM | GI50 (SK-MEL-5 melanoma): 1730 nM | TGI (SK-MEL-5 melanoma): 3130 nM | GI50 (HOP-92 NSCLC): 1400 nM | TGI (HOP-92 NSCLC): 3840 nM | GI50 (SNB-75 CNS): 1460 nM | TGI (SNB-75 CNS): 4440 nM | GI50 (786-0 renal): 1760 nM | TGI (786-0 renal): 3310 nM | GI50 (DU-145 prostate): 1680 nM | TGI (DU-145 prostate): 3160 nM | GI50 (LOX IMVI melanoma): 1690 nM | TGI (LOX IMVI melanoma): 3080 nM | GI50 (OVCAR-4 ovarian): 2270 nM | TGI (OVCAR-4 ovarian): 6850 nM | GI50 (TK-10 renal): 2550 nM | TGI (TK-10 renal): 5730 nM | GI50 (SN12C renal): 2050 nM | TGI (SN12C renal): 4630 nM | GI50 (IGROV1 ovarian): 1570 nM | TGI (IGROV1 ovarian): 5360 nM | GI50 (HL-60(TB) leukemia): 2300 nM | TGI (HL-60(TB) leukemia): 5790 nM | GI50 (SK-MEL-28 melanoma): 1880 nM | TGI (SK-MEL-28 melanoma): 3470 nM | GI50 (A498 renal): 1700 nM | TGI (A498 renal): 3150 nM | GI50 (NCI/ADR-RES ovarian): 2510 nM | TGI (NCI/ADR-RES ovarian): 7520 nM | GI50 (SF-539 CNS): 1760 nM | TGI (SF-539 CNS): 3200 nM | GI50 (HCC-2998 colon): 1880 nM | TGI (HCC-2998 colon): 3480 nM | GI50 (HCT-15 colon): 1380 nM | TGI (HCT-15 colon): 3770 nM | GI50 (RPMI-8226 leukemia): 1740 nM | TGI (RPMI-8226 leukemia): 5540 nM | GI50 (OVCAR-5 ovarian): 1910 nM | TGI (OVCAR-5 ovarian): 3650 nM | GI50 (KM12 colon): 1770 nM | TGI (KM12 colon): 3520 nM | GI50 (HOP-62 NSCLC): 1890 nM | TGI (HOP-62 NSCLC): 3580 nM | GI50 (CAKI-1 renal): 1410 nM | TGI (CAKI-1 renal): 2820 nM | GI50 (T-47D breast): 1770 nM | TGI (T-47D breast): 5110 nM | GI50 (COLO 205 colon): 1760 nM | TGI (COLO 205 colon): 3500 nM | GI50 (SK-MEL-2 melanoma): 2110 nM | TGI (SK-MEL-2 melanoma): 5060 nM | GI50 (HT29 colon): 2400 nM | TGI (HT29 colon): > 100000 nM | GI50 (CCRF-CEM leukemia): 2330 nM | TGI (CCRF-CEM leukemia): > 100000 nM | GI50 (MOLT-4 leukemia): 1330 nM | TGI (MOLT-4 leukemia): 5690 nM | GI50 (MDA-MB-231 breast): 2430 nM | TGI (MDA-MB-231 breast): 7870 nM | GI50 (NCI-H522 lung): 1720 nM | TGI (NCI-H522 lung): 4830 nM | GI50 (NCI-H23 lung): 1730 nM | TGI (NCI-H23 lung): 4190 nM | GI50 (MDA-MB-435): 2180 nM | TGI (MDA-MB-435): 5690 nM | GI50 (SW-620 colon): 2120 nM | TGI (SW-620 colon): 6340 nM | GI50 (SR leukemia): 1560 nM | TGI (SR leukemia): 7190 nM | GI50 (U251 CNS): 1610 nM | TGI (U251 CNS): 2960 nM | GI50 (NCI-H226 lung): 1810 nM | TGI (NCI-H226 lung): 4020 nM | GI50 (UO-31 renal): 1280 nM | TGI (UO-31 renal): 2540 nM | GI50 (SF-295 CNS): 2620 nM | TGI (SF-295 CNS): 7460 nM | GI50 (EKVX NSCLC): 1770 nM | TGI (EKVX NSCLC): 3560 nM | GI50 (ACHN renal): 1680 nM | TGI (ACHN renal): 3100 nM | GI50 (UACC-257 melanoma): 1700 nM | TGI (UACC-257 melanoma): 3210 nM | GI50 (UACC-62 melanoma): 1610 nM | TGI (UACC-62 melanoma): 3110 nM | GI50 (RXF 393 renal): 1630 nM | TGI (RXF 393 renal): 3040 nM | GI50 (MALME-3M melanoma): 1740 nM | TGI (MALME-3M melanoma): 3200 nM | GI50 (BT-549 breast): 2000 nM | TGI (BT-549 breast): 5180 nM
